Reference: patent US11147796B2, “Agent for preventing or ameliorating hearing impairment” (Tohoku University, priority 2017, dated 2021)

Assays:
[1] = tested on: skin cells derived from hearing loss patients attributable to other inherited diseases; assay: Amount of ATP production in skin cells of patients with other inherited diseases; assay type: cell-based, human; conditions: POU4F3 gene mutation, MELAS [m.3243A>G mutation], Alport syndrome
“m.1555A>G mutant” cells [2] = assay: Amount of ATP production in cells derived from hearing loss patients; assay type: cell-based, human; conditions: compound 10 μM, 12 hours
Protocol: (§1) In the following Examples 2, 3, and 5, “m.1555A>G mutant” cells were obtained by skin reproductive to a patient having “m.1555A>G mutation” to obtain dermal fibroblasts, then 10% Primary culture was carried out in DMEM (low glucose) culture solution (manufactured by Nacalai Tesque, Inc) containing FBS (Fetal bovine serum) under the condition of 5% CO2/20% O2, at 37° C. and isolated. In the following Examples 4 and 5, the inner ear culture was carried out in DMEM (high glucose) culture medium containing 10% FBS (Fetal bovine serum) under the condition of 5% CO2/20% O2, at 37° C.
[1] Three thousand “m.1555A>G mutant” cells were seeded per well in a 96-well cell culture plate and cultured for 24 hours.
[2] Compound #5 synthesized in Example 1 was mixed into the culture solution to be 10 μM and cultured for 12 hours (compound-treated group). As a control, “m.1555A>G mutant” cells were cultured in a culture medium in the absence of compound #5 (control group) or in a culture medium containing 0.01% DMSO (DMSO-treated group) for 12 hours. The concentration of ATP in the culture solution was measured with “cellular” ATP assay reagent (manufactured by Toyo Binet).

outer hair cells = assay: Survival rate of outer hair cells in cultured inner ear with cisplatin; assay type: cell-based, C57BL/6J mouse; conditions: 48 hours
Protocol: as §1
(§2) [1] The inner ear of C57BL/6J mouse (hereinafter referred to as “P3 mouse”) on the third day after birth was isolated and cultured in a culture solution for 24 hours.
(§3) [2] […] Thereafter, washing with TBS (TBST) solution containing 0.3% Triton X-100 for 5 minutes was repeated twice, followed by taking photograph with a fluorescence microscope (BZ-9000, manufactured by Keyence) and observed using BZ-H1 software (manufactured by Keyence). From the obtained image, the number of cells and the number of damaged cells, each of which has a shape of 200 μm each corresponding to each part of the apex turn, the media turn, and the basilar turn, were measured and 3 parts of the cochlea (apex, media, basilar) were calculated from the survival rate (%) of the outer hair cells and the inner hair cells. […]

inner hair cells = assay: Survival rate of inner hair cells in cultured inner ear with cisplatin; assay type: cell-based, C57BL/6J mouse; conditions: 48 hours
Protocol: as §1, §2, §3

“m.1555A>G mutant” cells [3] = assay: Cell survival level (MTT assay) of cisplatin- or gentamicin-treated cells; assay type: cell-based, human; conditions: 24 hours; for reduction of the cell survival level by gentamicin: gentamicin 2000 μM
Protocol: as §1
(§4) [1] 2000 cells of “m.1555A>G mutant” cells were plated per well in a 96-well cell culture plate and cultured for 24 hours.
[2] Cisplatin (manufactured by Yakult Corporation) or gentamicin (manufactured by Nacalai Tesque, Inc.) was mixed into the culture solution to be 100 μM and 2000 μM, respectively, and the compound #5 synthesized in Example 1 was mixed with various concentrations (1 and 10 μM), and cultured for 24 hours (cisplatin-treated group and gentamicin-treated group). As a control, “m.1555A>G mutant” cells were cultured in the absence of cisplatin (control group) or cisplatin-treated group in the absence of compound #5 (DMSO was added to 0.01%) for 24 hours. Cell survival level was measured by MTT assay using Cell Counting Kit-8 (manufactured by Dojindo laboratories). Specifically, 100 μL of Cell Count Reagent SF was added to each well, followed by incubation for 2 hours, and then stirred with a microplate reader for 3 seconds. Then the absorbance with 450 nm (reference 750 nm) was measured.

“m.1555A>G mutant” cells [4] = assay: Cell survival level (MTT assay, Cell Counting Kit-8) of BSO-treated cells; assay type: cell-based, human; conditions: BSO 100 μM, 48 hours
Protocol: as §1
[1] […]
[2] […] Cell survival level was measured by MTT assay using Cell Counting Kit-8 (manufactured by Dojindo Laboratories). That is, 100 μL of Cell Count Reagent SF was added to each well, incubated for 2 hours, and after 3 seconds of stirring with a microplate reader, the absorbance was measured at 450 nm (reference 750 nm). In addition, the level of cytotoxicity was detected by measuring lactate dehydrogenase (LDH) activity released extracellularly using Cytotoxicity LDH Assay Kit-WST (manufactured by Dojindo Laboratories). That is, 100 μL each of Working Solution prepared in each well was added, incubated for 30 minutes, Stop Solution was added in 50 μL each, and after stirring for 3 seconds with a microplate reader, the absorbance was measured at 490 nm (reference 750 nm).

“m.1555A>G mutant” cells [5] = assay: Cytotoxicity level (extracellular LDH activity) of BSO-treated cells; assay type: cell-based, human; conditions: BSO 100 μM, 48 hours
Protocol: as §1, §4
[2] Glutathione synthesis inhibitor BSO (L-Buthionine sulphoximine) (manufactured by Sigma-Aldrich) was mixed in the culture solution to be 100 μM and cultured for 24 hours (BSO-treated group). As a control, “m.1555A>G mutant” cells were cultured for 24 hours in the absence of BSO (control treatment group). For the BSO-treated group, the compound #5 synthesized in Example 1 was mixed into the culture solution so as to be at various concentrations (0.3, 1, 3, 10, and 30 μM) and cultured for 48 hours (N=4). As a control, the cells were cultured in the absence of compound #5 (DMSO was added so as to be 0.01%.). Cell survival level was measured by MTT assay using Cell Counting Kit-8 (manufactured by Dojindo Laboratories). That is, 100 μL of Cell Count Reagent SF was added to each well, incubated for 2 hours, and after 3 seconds of stirring with a microplate reader, the absorbance was measured at 450 nm (reference 750 nm). In addition, the level of cytotoxicity was detected by measuring lactate dehydrogenase (LDH) activity released extracellularly using Cytotoxicity LDH Assay Kit-WST (manufactured by Dojindo Laboratories). That is, 100 μL each of Working Solution prepared in each well was added, incubated for 30 minutes, Stop Solution was added in 50 μL each, and after stirring for 3 seconds with a microplate reader, the absorbance was measured at 490 nm (reference 750 nm).

[6] = cisplatin 10 μM, compound 0, 1, 5, 10, 50 μM

Compound: O=C(CC(C(=O)O)c1c[nH]c2ccccc12)c1ccc(F)cc1F (centres unmarked) [compound #5, 4-(2,4-Difluorophenyl)-2-(1H-indol-3-yl)-4-oxo-butanoic Acid]
- amount of ATP production [1]: confirmed
- amount of ATP production (“m.1555A>G mutant” cells [2]): increases
- survival rate of the outer hair cells (outer hair cells; [6]): increases in a concentration-dependent manner
- survival rate of the outer hair cells (outer hair cells; compound 10 μM, cisplatin 0, 5, 7.5, 10, 15, 20 μM, apex, media, basilar): increased as compared with the DMSO-treated group
- survival rate of the inner hair cells (inner hair cells; [6]): almost no change in survival rate
- survival rate of the inner hair cells (inner hair cells; compound 10 μM, cisplatin 0, 5, 7.5, 10, 15, 20 μM, vs DMSO-treated group): hardly any difference
- decrease in cell survival level due to cisplatin treatment (“m.1555A>G mutant” cells [3]; cisplatin 100 μM, compound 1 to 10 μM): significantly suppressed
- reduction of the cell survival level by gentamicin (“m.1555A>G mutant” cells [3]; compound 10 μM): significantly suppressed
- reduction of the cell survival level by gentamicin (“m.1555A>G mutant” cells [3]; compound at least 1 μM): suppressed
- decrease in cell survival level (“m.1555A>G mutant” cells [4]; compound 10 μM): significantly suppressed
- decrease in cell survival level (“m.1555A>G mutant” cells [4]; compound at least 1 μM): inhibited
- increase in the level of cytotoxicity (“m.1555A>G mutant” cells [5]; compound 3 μM, vs BSO-treated DMSO): a significant difference was observed
- increase in the level of cytotoxicity (“m.1555A>G mutant” cells [5]; compound at least 0.3 μM): suppressed
- increase in the level of cytotoxicity (“m.1555A>G mutant” cells [5]; compound at least 1 μM): reduced to a level almost unchanged from that of the control group
